Source: patent US20080188439A1, “Directed metabolism of compounds by glucuronidation and sulfonation donors to decrease toxicity” (priority 2006, published 2008)

Experiments:
C57B16/J male mice [1] = experiment: Dose-response of APAP toxicity (LD60) in mice; type: in vivo
Experimental: In prior experiments in the laboratory, the LD60, of APAP was determined to be about 600 mgs/kg. The molecular weight of APAP is 151; therefore, the LD60, was about 4 mMol/Kg.

C57B16/J male mice [2] = details: APAP 4 mMol/kg (600 mg/kg) IP plus 0.2 ml physiological saline; three of eight animals
[3] = cited from earlier work
[4] = cited from earlier work; remark: listed apart in the source
[5] = tested on: UDP-glucose dehydrogenase; details: UDP-glucose dehydrogenase reaction; cited from earlier work

## CC(=O)Nc1ccc(O)cc1 [APAP, N-acetyl-p-aminophenol]
C57B16/J male mice [1]; converted with molecular weight 151
  LD60: about 4 mMol/Kg
C57B16/J male mice [1]; prior experiments in the laboratory
  LD60: about 600 mgs/kg
C57B16/J male mice [2]
  survival at 24 hours, APAP/saline (control group): 37.5%
[3]; 112 patients, overdose
  median half-life after an overdose: 5.4 h
[3]; human, oral
  time of maximal blood concentrations after ingestion: 20 to 80 min
[3]; human, single oral dose of 1-3 gms
  experimental half-life (t0.5 β): 1.75 to 2.67 h
[3]; human
  volume of distribution: approximately 0.95 L/Kg
[3]; therapeutic dose
  share of a therapeutic dose biotransformed in the liver: 95%
[3]; toxic dose, first 24 hours
  share of the toxic dose excreted in the first 24 hours: over 90%
[4]; adult, normal (non-saturated) conditions
  share of circulating acetaminophen undergoing Phase II glucuronide conjugation: approximately 55%
[4]; adult
  share of circulating acetaminophen undergoing Phase II sulfonate conjugation: approximately 30%
[4]; normal conditions
  share of circulating acetaminophen undergoing Phase I metabolism by cytochrome P-450 enzymes: Five

## NC(=O)c1ccc[n+]([C@@H]2O[C@H](COP(=O)([O-])OP(=O)(O)OC[C@H]3O[C@@H](n4cnc5c(N)ncnc54)[C@H](O)[C@@H]3O)[C@@H](O)[C@H]2O)c1 [NAD^+, nicotinamide adenine dinucleotide]
[5]
  Km: 424 µM
